Experimental findings from US20220356170A1, “SREBP INHIBITOR COMPRISING A THIOPHENE CENTRAL RING” (Capulus Therapeutics, LLC, priority 2019, published 2022) are described below.

Like-named read-outs stand apart in the source and are kept apart here.

A short description of data set [1]: In vivo pharmacokinetics, intravenous. The following applies: male C57 BL/6 mice, dose 2.00 mg/kg (Compound 1), 2.43 mg/kg (Compound 2); for Vd: male, C57 BL/6, mouse, iv. How it is done:
(§1) The in vivo pharmacokinetic properties of Compound 1 by both intravenous and oral administration were evaluated in male C57 BL/6 mice. The in vivo pharmacokinetic properties of Compound 2 by both intravenous and oral administration were evaluated in male C57 BL/6 mice for comparison.
(§2) Animals were housed in cages with clean bedding. Certified rodent diet was provided. Water was available ad libitum. Environmental controls for the animal room were set to maintain a temperature of 22 to 25° C., humidity of 40-70% RH, and a 12-hour light /12-hour dark cycle. Normal healthy animals certified by the attending veterinarian were selected and acclimatized for minimum three days prior to initiation of study.
(§3) Procedure for Blood Withdrawal: Mice were anesthetized using gaseous anesthesia. Blood samples were collected through a capillary, guided in retro-orbital plexus. At each time point, blood samples from 3 mice of each respective group were collected. The blood samples were collected in pre-labeled tubes. 0.2 to 0.3 mL of blood were collected from each mouse. After collection of the blood samples at each time point, the samples were stored on ice prior to centrifugation. Blood samples were centrifuged within 15 minutes to separate plasma. Centrifugations was done at 1540 rcf (5000 rpm) at 4° C. for 10 minutes. The plasma was separated and transferred to pre-labeled micro-centrifuge tubes and promptly frozen at −80±10° C. until bioanalysis was performed. Samples were identified by test item, group, animal number, and collection time point.
To evaluate pharmacokinetic properties of intravenous delivery, nine male C57 BL/6 mice were administered 2.00 mg Compound 1/kg animal weight through the tail vein. The concentration of Compound 1 in the plasma of the animals was evaluated at 0.083, 0.25, 0.5, 1, 2, 4, 8, and 24 hr by taking blood samples from the mice. Compound 2 was similarly administered for comparison.

Data set [2] can be described thus: In vivo pharmacokinetics, oral. The following applies: male C57 BL/6 mice. Here is the method:
as §1, §2, §3
To evaluate pharmacokinetic properties of oral delivery, nine male C57 BL/6 mice were administered 10 mg Compound 1/kg animal weight by mouth. The concentration of Compound 1 in the plasma of the animals was evaluated at 0.25, 0.5, 1, 2, 4, 6, 8, and 24 hr by taking blood samples. Compound 2 was similarly administered for comparison.

The mark [3] stands for this setting: mouse, plasma, oral, dose 10.00 mg/kg (Compound 1), 12.01 mg/kg (Compound 2).

In general, AUC(0-inf) refers to total exposure, with the tail of the curve extrapolated. In general, AUC(0-t) refers to the area under the concentration-time curve up to a stated or last time point. Lower therefore signals low exposure. For orientation: clearance means the volume of plasma or blood freed of the substance per unit of time. Low readings indicate a low capacity for elimination, high ones a high capacity for elimination. By half-life is commonly meant the time needed for the level to fall by half in the phase considered. By bioavailability is commonly meant dose-corrected exposure relative to a reference, in per cent. A lower bioavailability goes with poor availability. The Cmax is the highest concentration seen after dosing. One may read the Tmax as the time at which the peak concentration occurs. Molecule `CC(C)(CO)c1cc(-c2csc(-c3ccc(C(=O)N4CCC(O)CC4)cc3Cl)c2)ccn1` [Compound 2, reference compound] returned an AUCExtra in data set [1] of 0.48%. Besides, the Vd in data set [1] (plasma, read-out: Vd) is 4.55 L/kg. Moreover, the Vd in data set [1] (plasma, read-out: Vss) was 2.32 L/kg. In addition, in data set [1] (mouse, plasma), the AUC(0-inf) is 2820 ng·h/mL, the AUC(0-t) turned out to be 2810 ng·h/mL, the C0 is 2670 ng/mL and the clearance came out at 14.3 mL/min/kg. Moreover, the half-life in data set [1] (mouse, plasma) was 3.67 h. Also, in data set [1] (mouse, plasma, read-out: MRT0-last), the MRT last was found to be 2.56 h. This molecule also returned a bioavailability in data set [2] (mouse, plasma, oral vs intravenous) of 66.6%. Further, in data set [2] (setting [3]), the AUC(0-inf) came out at 9300 ng·h/mL, the AUC(0-t) is 8060 ng·h/mL, the Cmax is 2180 ng/mL and the Tmax was 0.25 h. The half-life in data set [2] (setting [3]) was 9.46 h. For the same molecule, the MRT last in data set [2] (mouse, plasma, oral, dose 10.00 mg/kg (Compound 1), 12.01 mg/kg (Compound 2), read-out: MRT0-last) came to 6.61 h. The AUCExtra in data set [2] (oral, dose 10.00 mg/kg (Compound 1), 12.01 mg/kg (Compound 2)) is recorded as 13.38%.
